From ChEMBL document CHEMBL1158822, “Anthrabenzoxocinones from Streptomyces sp. as liver X receptor ligands and antibacterial agents” (J Nat Prod, 2005) come the findings set out here.

pIC50: −log10 of the molar value. Converted amounts (≈) assume the structure as drawn.

One assay has as its system Escherichia coli. Description: Antibacterial activity against lpxC mutant gene expressing Escherichia coli MB4902. Type of assay: functional.
Assay [1] relates to Staphylococcus aureus. Description: Inhibition of protein biosynthesis in Staphylococcus aureus.
Assay [2] has as its system Staphylococcus aureus. Description: Inhibition of RNA biosynthesis in Staphylococcus aureus.
For assay [3], the system named is Staphylococcus aureus. Description: Inhibition of type II fatty acid synthesis in Staphylococcus aureus using n-octanoyl-CoA and [14C]malonyl CoA substrate.
The test system of assay [4] is Staphylococcus aureus. Description: Inhibition of phospholipid biosynthesis in Staphylococcus aureus.
In the next assay the test system is Streptococcus pneumoniae. Description: Antibacterial activity against Streptococcus pneumoniae MB212. Type of assay: functional.
Assay [5] deals with T1, Oxysterols receptor LXR-alpha (Homo sapiens, UniProt Q13133).
T1 sequence (Q13133 whole entry): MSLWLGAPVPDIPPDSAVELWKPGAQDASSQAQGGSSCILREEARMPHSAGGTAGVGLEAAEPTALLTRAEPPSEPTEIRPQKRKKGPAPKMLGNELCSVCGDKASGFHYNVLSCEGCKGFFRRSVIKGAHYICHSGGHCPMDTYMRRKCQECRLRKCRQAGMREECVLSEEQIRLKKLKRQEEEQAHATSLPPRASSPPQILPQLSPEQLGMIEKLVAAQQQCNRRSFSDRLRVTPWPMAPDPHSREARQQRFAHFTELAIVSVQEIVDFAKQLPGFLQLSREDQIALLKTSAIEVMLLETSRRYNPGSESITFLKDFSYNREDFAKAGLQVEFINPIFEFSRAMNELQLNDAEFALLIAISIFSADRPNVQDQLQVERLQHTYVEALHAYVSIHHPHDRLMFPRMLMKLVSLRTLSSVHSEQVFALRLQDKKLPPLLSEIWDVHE
Description: Displacement of [3H2]F3-methyl AA from LXRalpha by scintillation proximity assay.

A further assay concerns Enterococcus faecalis. The assay can be described thus: Antibacterial activity against vancomycin-sensitive Enterococcus faecalis CL8516. Type of assay: functional.
The test system of assay [6] is Staphylococcus aureus. Description: Inhibition of DNA biosynthesis in Staphylococcus aureus.
For assay [7], the system named is Staphylococcus aureus. The assay can be described thus: Antibacterial activity against methicillin-sensitive Staphylococcus aureus MB2685. Type of assay: functional.
In assay [8] the target is T2, Oxysterols receptor LXR-beta (Homo sapiens, UniProt P55055).
T2 sequence (P55055 whole entry): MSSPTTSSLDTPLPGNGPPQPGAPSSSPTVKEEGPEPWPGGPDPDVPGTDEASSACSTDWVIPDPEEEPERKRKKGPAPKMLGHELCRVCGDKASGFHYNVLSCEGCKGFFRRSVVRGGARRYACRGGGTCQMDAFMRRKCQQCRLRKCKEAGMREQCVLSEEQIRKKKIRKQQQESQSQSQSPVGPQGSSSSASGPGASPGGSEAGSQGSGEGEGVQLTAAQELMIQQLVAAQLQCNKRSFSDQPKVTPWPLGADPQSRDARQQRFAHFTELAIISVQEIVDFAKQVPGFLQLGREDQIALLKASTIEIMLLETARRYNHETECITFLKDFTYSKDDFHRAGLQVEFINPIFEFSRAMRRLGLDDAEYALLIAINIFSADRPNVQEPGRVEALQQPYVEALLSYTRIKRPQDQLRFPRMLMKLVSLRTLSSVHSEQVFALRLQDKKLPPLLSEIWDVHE
The assay can be described thus: Displacement of [3H2]F3-methyl AA from LXRbeta by scintillation proximity assay. On the technique in general: In a scintillation proximity assay essentially only radioactivity close to the scintillant gives light.

In another assay the test system is Enterococcus faecium. Description: Antibacterial activity against vancomycin-resistant Enterococcus faecium CL5791. Type of assay: functional.
Assay [9] concerns Staphylococcus aureus. Description: Antibacterial activity against methicillin-resistant Staphylococcus aureus COL MB5393. Type of assay: functional.

On to `COc1cc(C)c2c(c1)O[C@@]1(C)Cc3cc4c(c(O)c3[C@@H]2O1)C(=O)c1c(O)c(Cl)c(O)c(Cl)c1C4(C)C`, for which the MIC against Escherichia coli stood at 0.5 µg/mL (≈ 0.92 µM); against Streptococcus pneumoniae, 1 µg/mL (≈ 1.84 µM); in the assay on Enterococcus faecalis, 1 µg/mL (≈ 1.84 µM); against Staphylococcus aureus [7], 0.5 µg/mL (≈ 0.92 µM); with Enterococcus faecium, 2 µg/mL (≈ 3.68 µM); with Staphylococcus aureus [9], 1 µg/mL (≈ 1.84 µM). Besides, the IC50 in the assay with Staphylococcus aureus [1] was 0.21 µg/mL (≈ 0.386 µM); in the assay with Staphylococcus aureus [2], 0.21 µg/mL (≈ 0.386 µM); in the assay on Staphylococcus aureus [3], 11.4 µg/mL (≈ 21 µM); in the assay on Staphylococcus aureus [4], 0.21 µg/mL (≈ 0.386 µM); with Staphylococcus aureus [6], 0.21 µg/mL (≈ 0.386 µM). Further, the pIC50 is 5.00 in assay [5] and below 4.82 in [8].
As to `Cc1cc(O)cc2c1[C@H]1O[C@](C)(Cc3cc4c(c(O)c31)C(=O)c1c(O)cc(O)cc1C4(C)C)O2`, the MIC was 2 µg/mL (≈ 4.34 µM) against Escherichia coli; 1 µg/mL (≈ 2.17 µM) against Streptococcus pneumoniae; 0.5 µg/mL (≈ 1.09 µM) with Enterococcus faecalis; 2 µg/mL (≈ 4.34 µM) in the assay with Staphylococcus aureus [7]; 2 µg/mL (≈ 4.34 µM) in the assay with Enterococcus faecium; 2 µg/mL (≈ 4.34 µM) with Staphylococcus aureus [9]. The IC50 with Staphylococcus aureus [1] is 1 µg/mL (≈ 2.17 µM); with Staphylococcus aureus [2], 1 µg/mL (≈ 2.17 µM); with Staphylococcus aureus [3], 288 µg/mL (≈ 625 µM); with Staphylococcus aureus [4], 1 µg/mL (≈ 2.17 µM); in the assay on Staphylococcus aureus [6], 1 µg/mL (≈ 2.17 µM).
Turning to `Cc1cc(O)cc2c1[C@@H]1O[C@@](C)(Cc3cc4c(c(O)c31)C(=O)c1c(O)cc(O)cc1C4(C)C)O2`, the minimum inhibitory concentration (MIC) against Escherichia coli came out at 1 µg/mL (≈ 2.17 µM); against Streptococcus pneumoniae, 1 µg/mL (≈ 2.17 µM); against Enterococcus faecalis, 1 µg/mL (≈ 2.17 µM); with Staphylococcus aureus [7], 1 µg/mL (≈ 2.17 µM); against Enterococcus faecium, 0.5 µg/mL (≈ 1.09 µM); with Staphylococcus aureus [9], 0.5 µg/mL (≈ 1.09 µM). The compound further came in with an IC50 in the assay with Staphylococcus aureus [3] of 245 µg/mL (≈ 532 µM).
Regarding `O=C(N[C@H](CO)[C@H](O)c1ccc([N+](=O)[O-])cc1)C(Cl)Cl` [CHLORAMPHENICOL], the MIC in the assay on Escherichia coli came to 1.56 µg/mL (≈ 4.83 µM); against Streptococcus pneumoniae, 1.56 µg/mL (≈ 4.83 µM); against Enterococcus faecalis it was 1.56 µg/mL (≈ 4.83 µM); in the assay with Staphylococcus aureus [7], 6.25 µg/mL (≈ 19.3 µM); in the assay on Enterococcus faecium, 6.25 µg/mL (≈ 19.3 µM); against Staphylococcus aureus [9], 6.25 µg/mL (≈ 19.3 µM). The compound further registered an IC50 in the assay on Staphylococcus aureus [3] above 250 µg/mL.
For the compound `CO[C@H]1/C=C/O[C@@]2(C)Oc3c(C)c(O)c4c(O)c(c(/C=N/N5CCN(C)CC5)c(O)c4c3C2=O)NC(=O)/C(C)=C\C=C\[C@H](C)[C@H](O)[C@@H](C)[C@@H](O)[C@@H](C)[C@H](OC(C)=O)[C@@H]1C` [RIFAMPIN], the minimum inhibitory concentration (MIC) with Escherichia coli amounted to 0.02 µg/mL (≈ 0.0243 µM); in the assay with Streptococcus pneumoniae, 0.004 µg/mL (≈ 0.00486 µM); with Enterococcus faecalis it was 0.008 µg/mL (≈ 0.00972 µM); in the assay on Staphylococcus aureus [7] it was 0.002 µg/mL (≈ 0.00243 µM); in the assay on Enterococcus faecium it was 0.04 µg/mL (≈ 0.0486 µM); against Staphylococcus aureus [9] it was 0.002 µg/mL (≈ 0.00243 µM). Further, the IC50 with Staphylococcus aureus [3] is above 250 µg/mL.

As usually defined, the MIC is the lowest concentration that inhibits growth of the organism. By IC50 is commonly meant the concentration at which inhibition is half-maximal. By pIC50 is commonly meant −log10 of the IC50, conventionally taken in molar units.
